Our source for the EC50 values is patent US10294234B2, “HIV inhibitor compounds” (priority 2017, dated 2019).

Like-named read-outs stand apart in the source and are kept apart here.

The assay concerns HIV-1 (IIIB) in MT-4 cells. As to the kind of experiment: MT-4 HIV assay. It is filed as cell-based. The conditions noted are these: Human immunodeficiency virus 1, MT4, 120 h. How it is done:
Compounds were tested in a high-throughput 384-well assay format for their ability to inhibit the replication of HIV-1 (IIIB) in MT-4 cells. Compounds were serially diluted (1:3) in DMSO on 384-well polypropylene plates and further diluted 200-fold into complete RPMI media (10% FBS, 1% P/S) using the Biotek Micro Flow and Agilent ECHO acoustic dispenser. Each plate contained up to 8 test compounds, with negative (No Drug Control) and 5 uM AZT positive controls. MT-4 cells were pre-infected with 10 uL of either RPMI (mock-infected) or a fresh 1:250 dilution of an HIV-1 (IIIB) concentrated virus stock. Infected and uninfected MT-4 cells were further diluted in complete RPMI media and added to each plate using a Micro Flow dispenser. After 5 days incubation in a humidified and temperature controlled incubator (37° C.), Cell Titer Glo (Promega) was added to the assay plates to quantify the amount of luciferase.

[1] abbreviates: HIV-1 (IIIB), MT-4 cells, 5 days, Cell Titer Glo, read-out: EC50.

The term EC50 denotes the concentration giving half of the maximal effect. As for `COC(=O)N[C@H](C(=O)N[C@@H](Cc1ccc(C#Cc2ccc(N3CC4CCC(C3)N4C3COC3)nc2)cc1)[C@@H](O)CN(Cc1ccc(-c2cnn(C(F)F)c2)cc1F)NC(=O)[C@@H](NC(=O)OC)C(C)(C)C(F)(F)F)C(C)(C)C(F)(F)F` [Example 157, Methyl ((5S,8S,9S,14S)-11-(4-(1-(difluoromethyl)-1H-pyrazol-4-yl)-2-fluorobenzyl)-16,16,16-trifluoro-9-hydroxy-15,15-dimethyl-8-(4-((6-(8-(oxetan-3-yl)-3,8-diazabicyclo[3.2.1]octan-3-yl)pyridin-3-yl)ethynyl)benzyl)-3,6,13-trioxo-5-(1,1,1-trifluoro-2-methylpropan-2-yl)-2-oxa-4,7,11,12-tetraazahexadecan-14-yl)carbamate], under setting [1], the EC50 was determined as 4.53 nM.
On the same count and under the same terms, the value for `COC(=O)N[C@H](C(=O)N[C@@H](Cc1ccc(C#Cc2ccc(N3CCN(C4COC4)CC3)nc2)cc1)[C@@H](O)CN(Cc1c(F)cc(-c2ccn(C3CC3)n2)cc1F)NC(=O)[C@@H](NC(=O)OC)C(C)(C)C(F)(F)F)C(C)(C)C(F)(F)F` [Example 92, Methyl ((5S,8S,9S,14S)-11-(4-(1-cyclopropyl-1H-pyrazol-3-yl)-2,6-difluorobenzyl)-16,16,16-trifluoro-9-hydroxy-15,15-dimethyl-8-(4-((6-(4-(oxetan-3-yl)piperazin-1-yl)pyridin-3-yl)ethynyl)benzyl)-3,6,13-trioxo-5-(1,1,1-trifluoro-2-methylpropan-2-yl)-2-oxa-4,7,11,12-tetraazahexadecan-14-yl)carbamate] was 3.72 nM; that for `COC(=O)N[C@H](C(=O)N[C@@H](Cc1ccc(C#Cc2ccc(N3CC4CC(C3)N4C3COC3)nc2)cc1)[C@@H](O)CN(Cc1c(F)cc(-c2ccc(N3CC4CC(C3)N4C3COC3)nc2)cc1F)NC(=O)[C@@H](NC(=O)OC)C(C)(C)C(F)(F)F)C(C)(C)C(F)(F)F` [Example 38, Methyl ((5S,8S,9S,14S)-11-(2,6-difluoro-4-(6-(6-(oxetan-3-yl)-3,6-diazabicyclo[3.1.1]heptan-3-yl)pyridin-3-yl)benzyl)-16,16,16-trifluoro-9-hydroxy-15,15-dimethyl-8-(4-((6-(6-(oxetan-3-yl)-3,6-diazabicyclo[3.1.1]heptan-3-yl)pyridin-3-yl)ethynyl)benzyl)-3,6,13-trioxo-5-(1,1,1-trifluoro-2-methylpropan-2-yl)-2-oxa-4,7,11,12-tetraazahexadecan-14-yl)carbamate] was 6.13 nM.
The same measure, in the same setting: the value for `COC(=O)N[C@H](C(=O)NN(Cc1c(F)cc(-c2ccn(C3CC3)n2)cc1F)C[C@H](O)[C@H](Cc1ccc(C#Cc2ccc(N3CC4CCC(C3)N4C3COC3)nc2)cc1)NC(=O)[C@@H](NC(=O)OC)C(C)(C)C(F)(F)F)C(C)(C)C` [Example 5, methyl ((5S,8S,9S,14S)-11-(4-(1-cyclopropyl-1H-pyrazol-3-yl)-2,6-difluorobenzyl)-9-hydroxy-15,15-dimethyl-8-(4-((6-(8-(oxetan-3-yl)-3,8-diazabicyclo[3.2.1]octan-3-yl)pyridin-3-yl)ethynyl)benzyl)-3,6,13-trioxo-5-(1,1,1-trifluoro-2-methylpropan-2-yl)-2-oxa-4,7,11,12-tetraazahexadecan-14-yl)carbamate] was 4.37 nM; that for `COC(=O)N[C@H](C(=O)N[C@@H](Cc1ccc(C#Cc2ccc(N3CC4CCC(C3)N4)nc2)cc1)[C@@H](O)CN(Cc1c(F)cc(-c2cnn(C(F)F)c2)cc1F)NC(=O)[C@@H](NC(=O)OC)C(C)(C)C(F)(F)F)C(C)(C)C(F)(F)F` [Example 162, Methyl ((5S,8S,9S,14S)-8-(4-((6-(3,8-diazabicyclo[3.2.1]octan-3-yl)pyridin-3-yl)ethynyl)benzyl)-11-(4-(1-(difluoromethyl)-1H-pyrazol-4-yl)-2,6-difluorobenzyl)-16,16,16-trifluoro-9-hydroxy-15,15-dimethyl-3,6,13-trioxo-5-(1,1,1-trifluoro-2-methylpropan-2-yl)-2-oxa-4,7,11,12-tetraazahexadecan-14-yl)carbamate] was 12.2 nM.
On the same count and under the same terms, the value for `COC(=O)N[C@H](C(=O)N[C@@H](Cc1ccc(C#Cc2nc(N3CC4CCC(C3)N4C3COC3)nc(N3C[C@H]4CC[C@@H](C3)N4C3COC3)n2)cc1)[C@@H](O)CN(Cc1c(F)cc(-c2ccn(C(F)F)n2)cc1F)NC(=O)[C@@H](NC(=O)OC)C(C)(C)C(F)(F)F)C(C)(C)C(F)(F)F` [Example 49, Methyl ((5S,8S,9S,14S)-11-(4-(1-(difluoromethyl)-1H-pyrazol-3-yl)-2,6-difluorobenzyl)-16,16,16-trifluoro-9-hydroxy-15,15-dimethyl-8-(4-((4-((1R,5S)-8-(oxetan-3-yl)-3,8-diazabicyclo[3.2.1]octan-3-yl)-6-(8-(oxetan-3-yl)-3,8-diazabicyclo[3.2.1]octan-3-yl)-1,3,5-triazin-2-yl)ethynyl)benzyl)-3,6,13-trioxo-5-(1,1,1-trifluoro-2-methylpropan-2-yl)-2-oxa-4,7,11,12-tetraazahexadecan-14-yl)carbamate] was 37.3 nM; that for `COC(=O)N[C@H](C(=O)N[C@@H](Cc1ccc(C#Cc2ccc(N3CC4CCC(C3)N4C(C)C)nc2)cc1)[C@@H](O)CN(Cc1c(F)cc(-c2ccccn2)cc1F)NC(=O)[C@@H](NC(=O)OC)C(C)(C)C(F)(F)F)C(C)(C)C(F)(F)F` [Example 240, methyl ((5S,8S,9S,14S)-11-(2,6-difluoro-4-(pyridin-2-yl)benzyl)-16,16,16-trifluoro-9-hydroxy-8-(4-((6-(8-isopropyl-3,8-diazabicyclo[3.2.1]octan-3-yl)pyridin-3-yl)ethynyl)benzyl)-15,15-dimethyl-3,6,13-trioxo-5-(1,1,1-trifluoro-2-methylpropan-2-yl)-2-oxa-4,7,11,12-tetraazahexadecan-14-yl)carbamate] was 5.62 nM; that for `COC(=O)N[C@H](C(=O)N[C@@H](Cc1ccc(C#Cc2ccc(N3CC4CCC(C3)N4CC(F)F)nc2)cc1)[C@@H](O)CN(Cc1c(F)cc(-c2ccccn2)cc1Cl)NC(=O)[C@@H](NC(=O)OC)C(C)(C)CF)C(C)(C)CF` [Example 238, methyl ((5S,8S,9S,14S)-11-(2-chloro-6-fluoro-4-(pyridin-2-yl)benzyl)-8-(4-((6-(8-(2,2-difluoroethyl)-3,8-diazabicyclo[3.2.1]octan-3-yl)pyridin-3-yl)ethynyl)benzyl)-16-fluoro-5-(1-fluoro-2-methylpropan-2-yl)-9-hydroxy-15,15-dimethyl-3,6,13-trioxo-2-oxa-4,7,11,12-tetraazahexadecan-14-yl)carbamate] was 12.3 nM.
On to `CC1(C(=O)N[C@H](C(=O)N[C@@H](Cc2ccc(-c3cnn(C(F)F)c3)cc2)[C@@H](O)CN(Cc2c(F)cc(-c3cnn(C(F)F)c3)cc2F)NC(=O)[C@@H](NC(=O)C2(C)CC2)C(C)(C)C(F)(F)F)C(C)(C)C(F)(F)F)CC1` [Example 216, N—((S)-1-(2-(4-(1-(difluoromethyl)-1H-pyrazol-4-yl)-2,6-difluorobenzyl)-2-((2S,3S)-4-(4-(1-(difluoromethyl)-1H-pyrazol-4-yl)phenyl)-2-hydroxy-3-((S)-4,4,4-trifluoro-3,3-dimethyl-2-(1-methylcyclopropane-1-carboxamido)butanamido)butyl)hydrazinyl)-4,4,4-trifluoro-3,3-dimethyl-1-oxobutan-2-yl)-1-methylcyclopropane-1-carboxamide], for which the EC50 under setting [1] worked out at 114 nM.
As to `COC(=O)N[C@H](C(=O)N[C@@H](Cc1ccc(C#Cc2ccc(N3C[C@@H](C)O[C@@H](C)C3)nc2)cc1)[C@@H](O)CN(Cc1c(F)cc(-c2cnn(C(F)F)c2)cc1F)NC(=O)[C@@H](NC(=O)OC)C(C)(C)C(F)(F)F)C(C)(C)C(F)(F)F` [Example 132, Methyl ((5S,8S,9S,14S)-11-(4-(1-(difluoromethyl)-1H-pyrazol-4-yl)-2,6-difluorobenzyl)-8-(4-((6-((2S,6R)-2,6-dimethylmorpholino)pyridin-3-yl)ethynyl)benzyl)-16,16,16-trifluoro-9-hydroxy-15,15-dimethyl-3,6,13-trioxo-5-(1,1,1-trifluoro-2-methylpropan-2-yl)-2-oxa-4,7,11,12-tetraazahexadecan-14-yl)carbamate], under setting [1], the EC50 came to 18.2 nM.
Regarding `COC(=O)N[C@H](C(=O)N[C@@H](Cc1ccc(C#Cc2ccc(N3CC4CCC(C3)N4C3COC3)nc2)cc1)[C@@H](O)CN(Cc1ccc(-c2ccc(F)cn2)cc1)NC(=O)[C@@H](NC(=O)OC)C(C)(C)C(F)(F)F)C(C)(C)C(F)(F)F` [Example 111, Methyl ((5S,8S,9S,14S)-16,16,16-trifluoro-11-(4-(5-fluoropyridin-2-yl)benzyl)-9-hydroxy-15,15-dimethyl-8-(4-((6-(8-(oxetan-3-yl)-3,8-diazabicyclo [3.2.1]octan-3-yl)pyridin-3-yl)ethynyl)benzyl)-3,6,13-trioxo-5-(1,1,1-trifluoro-2-methylpropan-2-yl)-2-oxa-4,7,11,12-tetraazahexadecan-14-yl)carbamate], a half-maximal response (EC50) required 7.22 nM.
On to `COC(=O)N[C@H](C(=O)N[C@@H](Cc1ccc(-c2ccc(N3CC4CCC(C3)N4C3COC3)nc2)cc1)[C@@H](O)CN(Cc1c(F)cc(-c2nnc(C3CC3)o2)cc1F)NC(=O)[C@@H](NC(=O)OC)C(C)(C)C(F)(F)F)C(C)(C)C(F)(F)F` [Example 205, Methyl ((5S,8S,9S,14S)-11-(4-(5-cyclopropyl-1,3,4-oxadiazol-2-yl)-2,6-difluorobenzyl)-16,16,16-trifluoro-9-hydroxy-15,15-dimethyl-8-(4-(6-(8-(oxetan-3-yl)-3,8-diazabicyclo[3.2.1]octan-3-yl)pyridin-3-yl)benzyl)-3,6,13-trioxo-5-(1,1,1-trifluoro-2-methylpropan-2-yl)-2-oxa-4,7,11,12-tetraazahexadecan-14-yl)carbamate], for which the EC50 under setting [1] amounted to 5.25 nM.
